Consider one compound from patent publication US6254889A, “Solid dispersion dosage form of amorphous xanthine derivative and enteric-coating polymer” (Kyowa Hakko Kogyo Co., Ltd., priority 1995, dated 2001).

A short description of the data set: Comparative absorbability test, oral administration to beagles (pharmacokinetics). The class given is in vivo. The settings on record: male beagle, oral with 20 ml water, 0-24 h, in terms of 3 mg/kg (doses given: Examples 6-8 3 mg/kg, crystal 6 mg/kg, Comparative Example 1 4 mg/kg).

Regarding `CCCn1c(=O)c2[nH]c(C34CC5CC(CC3C5)C4)nc2n(CCC)c1=O` [Compound No. 1], the “The Area under the Plasma Concentration Curve, Intact Drug (in terms of 3 mg/kg)” value stood at 69.9 ± 2.6 ng·h/mL.
